Patent US20140011799A1 (Bristol-Myers Squibb Company, priority 2012, published 2014)
pIC50: −log10 of the molar value.

Biological target: T1, Endothelial lipase (EL) (Homo sapiens, UniProt Q9Y5X9)
T1 construct: HT-1080 cells that were transformed using RAGE technology (Athersys) to overexpress endogenous EL; endogenous in cells; conditioned medium used
T1 sequence (Q9Y5X9 21-500): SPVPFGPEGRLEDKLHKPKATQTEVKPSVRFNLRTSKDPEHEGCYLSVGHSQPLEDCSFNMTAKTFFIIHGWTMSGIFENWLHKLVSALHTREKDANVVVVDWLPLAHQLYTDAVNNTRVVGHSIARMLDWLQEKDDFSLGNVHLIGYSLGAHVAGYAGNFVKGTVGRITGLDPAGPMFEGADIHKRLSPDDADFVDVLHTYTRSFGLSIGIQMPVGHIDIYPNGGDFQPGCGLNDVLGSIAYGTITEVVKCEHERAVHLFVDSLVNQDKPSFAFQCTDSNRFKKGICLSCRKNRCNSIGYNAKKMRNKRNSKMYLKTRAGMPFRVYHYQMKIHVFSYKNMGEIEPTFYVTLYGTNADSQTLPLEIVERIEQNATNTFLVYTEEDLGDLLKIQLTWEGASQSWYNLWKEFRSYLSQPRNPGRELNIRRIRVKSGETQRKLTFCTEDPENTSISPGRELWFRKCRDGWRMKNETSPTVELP
Experiment: Endothelial lipase (EL) enzymatic assay, fluorescent substrate A10070 in DMPG vesicles
Type: biochemical
Details: EL from conditioned media of HT-1080 cells; compound preincubated 30 min at 37° C; read-out: EL IC50
Method: Endothelial lipase (EL) and hepatic lipase (HL) activities were measured using a fluorescent substrate, A10070, (Invitrogen, CA) doped into an artificial vesicle containing DMPG (Avanti Polar Lipids) as the excipient. Vesicles were prepared by combining 571 μL of 29 mM DMPG in a 1:1 mixture of MeOH and CHCl3 with 2000 μL of 1 mM A10070 in a 1:1 mixture of MeOH and CHCl3. The mixture was dried under nitrogen in multiple vials then resuspended in 20 mL total volume of 50 mM HEPES pH 8.0 buffer containing 50 mM NaCl and 0.2 mM EDTA. The sample was allowed to sit at room temperature for 15 min and then was sonicated 3×4 mins on ice with a Branson Sonicator using duty cycle 1. This preparation provides vesicles with a mole fraction of 0.11 for the FRET substrate.
The enzymatic assay was measured using 384-well white Optiplates. Each well contained 20 μL of assay buffer (50 mM HEPES pH 8.0, 50 mM NaCl and 1 mM CaCl2) and 0.25 μL of a DMSO solution containing a compound of interest. EL or HL (10 μL) was added and allowed to incubate with the compound for 30 min at 37° C. The source of EL was conditioned media obtained from HT-1080 cells that were transformed using RAGE technology (Athersys) to overexpress endogenous EL, and HL was partially purified from conditioned media obtained from COS cells overexpressing HL. The reaction was started by the addition of 10 μL of a 1:10 dilution of vesicles. The final total reaction volume was […]. The reaction rates were measured on a Gemini plate reader with an excitation wavelength of 490 nm and an emission wavelength of 530 nm. Readings were taken over a period of 60 minutes, and the slope between 300 and 900 secs of the readout was used to calculate the rate of the reaction.

How did the pIC50 turn out when `NS(=O)(=O)NCc1nnc(C(c2nc3ccc(-c4ccccc4)cc3s2)S(=O)(=O)Cc2cccc(Cl)c2)o1` (centres unmarked) [Example 73, N-((5-(((3-chlorobenzyl)sulfonyl)(6-phenyl-1,3-benzothiazol-2-yl)methyl)-1,3,4-oxadiazol-2-yl)methyl)sulfamide] was run?
The pIC50 was over 8.00.

`CC1(Cc2nnc(C(c3nc4ccc(-c5ccccc5)cc4s3)S(C)(=O)=O)o2)NC(=O)N(CC(F)(F)F)C1=O` (single isomer, unassigned; isomer a) [Example 27, 5-methyl-5-((5-(methylsulfonyl(6-phenylbenzo[d]thiazol-2-yl)methyl)-1,3,4-oxadiazol-2-yl)methyl)-3-(2,2,2-trifluoroethyl)imidazolidine-2,4-dione (Isomer A)] was tested. Which pIC50 did it give?
Its pIC50 is over 8.00.

How did the pIC50 turn out when `COc1nc(-c2nnc(C(c3nc4ccc(-c5ccccc5)cc4s3)S(=O)(=O)CCC(F)(F)F)o2)c(O)c(=O)[nH]1` (centres unmarked) [Example 44, 5-Hydroxy-2-methoxy-6-(5-((6-phenylbenzo[d]thiazol-2-yl)((3,3,3-trifluoropropyl)sulfonyl)methyl)-1,3,4-oxadiazol-2-yl)pyrimidin-4(3H)-one] was run?
The pIC50 was 7.11.

How did the pIC50 turn out when `NS(=O)(=O)NCc1nnc(C(c2nc3ccc(-c4ccccc4)cc3s2)S(=O)(=O)CCCc2ccccc2)o1` (centres unmarked) [Example 54, N-((5-((6-phenyl-1,3-benzothiazol-2-yl) ((3-phenylpropyl)sulfonyl)methyl)-1,3,4-oxadiazol-2-yl)methyl) sulfamide] was run?
The pIC50 was about 8.00.

`CS(=O)(=O)C(c1nnc(CC2SC(=O)NC2=O)o1)c1nc2c(F)cc(-c3ccccc3)cc2s1` (centres unmarked) [Example 94, 5-((5-((4-fluoro-6-phenyl-benzo[d]thiazol-2-yl) (methylsulfonyl)methyl)-1,3,4-oxadiazol-2-yl)methyl)thiazolidine-2,4-dione] was tested. Which pIC50 did it give?
Its pIC50 is over 8.00.

With `C[C@]1(Cc2nnc(C(c3nc4ccc(-c5ccccc5)cc4s3)S(C)(=O)=O)o2)OC(=O)NC1=O` (stereo partly drawn) [Example 42, (5R)-5-Methyl-5-((5-((methylsulfonyl)(6-phenylbenzo[d]thiazol-2-yl)methyl)-1,3,4-oxadiazol-2-yl)methyl)oxazolidine-2,4-dione] as the compound, how does the pIC50 read?
The pIC50 was over 8.00.

`NS(=O)(=O)NCc1nnc(C(c2nc3ccc(-c4ccccc4)cc3s2)S(=O)(=O)Cc2cccc(F)c2)o1` (centres unmarked) [Example 56, N-((5-(((3-fluorobenzyl)sulfonyl)(6-phenyl-1,3-benzothiazol-2-yl)methyl)-1,3,4-oxadiazol-2-yl)methyl)sulfamide] was tested. Which pIC50 did it give?
Its pIC50 is over 8.00.

With `O=S(=O)(O)Cc1nnc(C(c2nc3ccc(-c4ccc(OCc5ccccc5)cc4)cc3s2)S(=O)(=O)CCC(F)(F)F)o1` (centres unmarked) [Example 11, (5-((6-(4-(benzyloxy)phenyl)benzo[d]thiazol-2-yl)((3,3,3-trifluoropropyl)sulfonyl)methyl)-1,3,4-oxadiazol-2-yl)methanesulfonic acid] as the compound, how does the pIC50 read?
Its pIC50 is under 8.00.

With `NS(=O)(=O)NCc1nnc(C(c2nc3ccc(-c4ccc(F)nc4)cc3s2)S(=O)(=O)Cc2ccc(C(F)(F)F)nc2)o1` (centres unmarked) [Example 76, N-({5-[6-(6-fluoro-3-pyridinyl)-1,3-benzothiazol-2-yl({[6-(trifluoromethyl)pyridin-3-yl]methyl}sulfonyl)methyl]-1,3,4-oxadiazol-2-yl}methyl) sulfuric diamide] as the compound, how does the pIC50 read?
The pIC50 was 7.96.

How did the pIC50 turn out when `CC(C)S(=O)(=O)C(c1nnc(CC2SC(=O)NC2=O)o1)c1nc2c(F)cc(-c3ccccc3)cc2s1` (centres unmarked) [Example 95, 5-((5-((4-fluoro-6-phenyl-benzo[d]thiazol-2-yl) (isopropylsulfonyl)methyl)-1,3,4-oxadiazol-2-yl)methyl)thiazolidine-2,4-dione] was run?
Its pIC50 is over 8.00.

How did the pIC50 turn out when `CC1(Cc2nnc(C(c3nc4ccc(-c5ccc(F)nc5)cc4s3)S(C)(=O)=O)o2)NC(=O)NC1=O` (single isomer, unassigned; isomer a) [Example 21, 5-((5-((6-(6-fluoropyridin-3-yl)benzo[d]thiazol-2-yl)(methylsulfonyl)methyl)-1,3,4-oxadiazol-2-yl)methyl)-5-methylimidazolidine-2,4-dione (Isomer A)] was run?
The pIC50 was 6.55.

How did the pIC50 turn out when `COc1ccc(OCCCS(=O)(=O)C(c2nnc(CNS(N)(=O)=O)o2)c2nc3ccc(-c4ccccc4)cc3s2)cc1` (centres unmarked) [Example 55, N-((5-(((3-(4-methoxyphenoxy)propyl)sulfonyl) (6-phenyl-1,3-benzothiazol-2-yl)methyl)-1,3,4-oxadiazol-2-yl)methyl)sulfamide] was run?
Its pIC50 is over 8.00.

With `CS(=O)(=O)C(c1nnc(CC2SC(=O)NC2=O)o1)c1nc2ccc(-c3ccc(C(=O)N4CCOCC4)cc3)cc2s1` (centres unmarked) [Example 2, 5-((5-((methylsulfonyl)(6-(4-(4-morpholinylcarbonyl)phenyl)-1,3-benzothiazol-2-yl)methyl)-1,3,4-oxadiazol-2-yl)methyl)-1,3-thiazolidine-2,4-dione] as the compound, how does the pIC50 read?
The pIC50 was over 8.00.

`CC1(Cc2nnc(C(c3nc4ccc(-c5ccc(F)nc5)cc4s3)S(=O)(=O)Cc3ccccc3)o2)SC(=O)NC1=O` (single isomer, unassigned; isomer a) [Example 1, 5-((5-((Benzylsulfonyl)(6-(6-fluoropyridin-3-yl)benzo[d]thiazol-2-yl)methyl)-1,3,4-oxadiazol-2-yl)methyl)-5-methylthiazolidine-2,4-dione (Isomer A)] was tested. Which pIC50 did it give?
The pIC50 was over 8.00.

With `O=C1NC(=O)C(Cc2nnc(C(c3nc4cc(F)c(-c5ccccc5)cc4s3)S(=O)(=O)Cc3ccccc3)o2)S1` (centres unmarked) [Example 91, 5-((5-((benzylsulfonyl) (5-fluoro-6-phenyl-benzo[d]thiazol-2-yl)methyl)-1,3,4-oxadiazol-2-yl)methyl) thiazolidine-2,4-dione] as the compound, how does the pIC50 read?
Its pIC50 is over 8.00.

How did the pIC50 turn out when `CC(C)(C)OC(=O)N1CC(c2nnc(C(c3nc4ccc(-c5ccccc5)cc4s3)S(=O)(=O)Cc3ccccc3)o2)C1` (centres unmarked) [Example 33, tert-butyl 3-(5-((benzylsulfonyl) (6-phenylbenzo[d]thiazol-2-yl)methyl)-1,3,4-oxadiazol-2-yl)azetidine-1-carboxylate] was run?
Its pIC50 is 7.85.

How did the pIC50 turn out when `O=C1NC(=O)C(Cc2nnc(C(c3nc4c(F)cc(-c5ccccc5)cc4s3)S(=O)(=O)Cc3ccccc3)o2)S1` (centres unmarked) [Example 93, 5-((5-((benzylsulfonyl) (4-fluoro-6-phenyl-benzo[d]thiazol-2-yl)methyl)-1,3,4-oxadiazol-2-yl)methyl)thiazolidine-2,4-dione] was run?
The pIC50 was over 8.00.

With `CC1(Cc2nnc(C(c3nc4ccc(-c5ccccc5)cc4s3)S(C)(=O)=O)o2)NC(=O)NC1=O` (centres unmarked) [Example 29, 5-methyl-5-((5-((methylsulfonyl)(6-phenyl-1,3-benzothiazol-2-yl)methyl)-1,3,4-oxadiazol-2-yl)methyl)-2,4-imidazolidinedione] as the compound, how does the pIC50 read?
The pIC50 was over 8.00.

With `CC1(Cc2nnc(C(c3nc4ccc(-c5ccc(C(=O)N6CCOCC6)cc5)cc4s3)S(C)(=O)=O)o2)NC(=O)NC1=O` (single isomer, unassigned; isomer a) [Example 14, 5-methyl-5-((5-((methylsulfonyl)(6-(4-(morpholine-4-carbonyl)phenyl)benzo[d]thiazol-2-yl)methyl)-1,3,4-oxadiazol-2-yl)methyl)imidazolidine-2,4-dione (Isomer A)] as the compound, how does the pIC50 read?
The pIC50 was 7.92.

How did the pIC50 turn out when `Cc1ccccc1CS(=O)(=O)C(c1nnc(CNS(N)(=O)=O)o1)c1nc2ccc(-c3ccccc3)cc2s1` (centres unmarked) [Example 70, N-((5-(((2-methylbenzyl)sulfonyl)(6-phenyl-1,3-benzothiazol-2-yl)methyl)-1,3,4-oxadiazol-2-yl)methyl) sulfamide] was run?
Its pIC50 is over 8.00.

`CCCS(=O)(=O)C(c1nnc(CNS(N)(=O)=O)o1)c1nc2ccc(-c3ccccc3)cc2s1` (centres unmarked) [Example 66, N-({5-[(propylsulfonyl) (6-phenyl-1,3-benzothiazol-2-yl)methyl]-1,3,4-oxadiazol-2-yl}methyl) sulfuric diamide] was tested. Which pIC50 did it give?
Its pIC50 is over 8.00.

How did the pIC50 turn out when `NS(=O)(=O)NCc1nnc(C(c2nc3ccc(-c4ccccc4)cc3s2)S(=O)(=O)C2CCCC2)o1` (centres unmarked) [Example 67, N-({5-[(cyclopentylsulfonyl) (6-phenyl-1,3-benzothiazol-2-yl)methyl]-1,3,4-oxadiazol-2-yl}methyl)sulfuric diamide] was run?
Its pIC50 is over 8.00.

How did the pIC50 turn out when `CC(O)(c1nnc(CNS(N)(=O)=O)o1)c1nc2ccc(-c3ccc(F)nc3)cc2s1` (centres unmarked) [Reference 4, N-((5-(1-(6-(6-Fluoro-3-pyridinyl)-1,3-benzothiazol-2-yl)-1-hydroxyethyl)-1,3,4-oxadiazol-2-yl)methyl)sulfamide, reference compound] was run?
Its pIC50 is 4.83.
